Reference: EP0286491B1, “Antimalarial aminoquinoline derivatives, method for their preparation and pharmaceutical composition containing them” (LA REGION WALLONNE, priority 1987, dated 1988)
“Also recorded” adds a separate entry of the source.

How the values were obtained:
[1] = Acute toxicity after a single i.v. injection in non-infected mice; format: in vivo; conditions: for toxicité aiguë compared with Pq: qualitative comparison with primaquine; for LD50 / MTD: mouse, in vivo, iv; for LD50: mice, read-out: dose léthale 50 % (LD₅₀); for MTD: highest dose with weight loss <= 5 % over five days, read-out: dose maximale tolérée (MTD)
Description: La toxicité aiguë en fonction de la dose unique administrée est déterminée sur des souris de 18 à 22 g. Une série de dilutions de chaque composé est injectée par voie intraveineuse à des groupes de 10 souris.
^a : les dérivés sont administrés par vote i.v. trois heures après l'inoculation des sporozoïtes. Les concentrations sont toujours exprimées en mg Pq diphosphate/kg. ^b : la dose maximale tolérée est définie code la dose la plus élevée induisant une perte de poids inférieure ou égale & 5 % du poids initial pendant une période de cinq jours suivant l'injection i.v. ^c : dose léthale tuant 50 % des souris en une seule injection i.v. ^d : dose prophylactique causale permettant de guérir 50 % des souris injectées. ^e : index thérapeutique défini par le rapport LD₅₀/CPD₅₀.

[2] = test system: P. berghei berghei (ANKA); assay: Causal prophylactic activity in the rodent malaria model (sporozoite-infected mice, single i.v. treatment 3 h after inoculation); format: in vivo, souris Swiss OF1; conditions: for index Pq (CPD₅₀ de la Pq/CPD₅₀ du composé): ratio of CPD₅₀ of Pq to CPD₅₀ of the derivative; for CPD₅₀ (dose prophylactique causale guérissant 50 % des animaux infectés) / ED50: dose as mg Pq diphosphate/kg; for activité thérapeutique compared with Pq: qualitative comparison with primaquine; for ED50: read-out: CPD₅₀ (dose prophylactique causale guérissant 50 % des animaux infectés); for index thérapeutique (LD₅₀/CPD₅₀): ratio LD₅₀/CPD₅₀
Description: Le modèle de la malaria du rongeur, Plasmodium berghei-Anopheles stephensi-souris, mis au point par MOST, H., HERMAN, R. & SCHOENFELD, C. (1967) Am. J. Trop. Med. Hyg. 16, 572-575, permet de déterminer l'activité prophylactique causale (schizonticide tissulaire) de nouveaux composés thérapeutiques. La procédure utilisée est dérivée de celle de MOST, H. & MONTUORI, W.A. (1975) Am. J. Trop. Med. Hyg. 24, 179-182. Il s'agit du système P. berghei berghei (ANKA)- Anopheles stephensi-souris Swiss OF1. La souche ANKA de P. b. berghei est entretenue cycliquement sur Anopheles stephensi. La souche de souris Swiss OF1 est particulièrement sensible à P. b. berghei qui produit une infection toujours mortelle.
Les moustiques femelles (80 à 100 individus par préparation) sont débarassés de leurs pattes, ailes et abdomen, puis homogénéisés à 4°C à l'aide d'un potter en verre, dans du milieu M 199 (GIBCO) contenant 10 % de sérum foetal de veau. La suspension de sporozoïtes est ensuite purifiée des débris du moustique par deux centrifugations successives ( 2 min. à 50 g et 5 min. à 200 g) et le surnageant recueilli est conservé à 4°C. Après comptage dans une chambre de Petroff-Hausser, le nombre de parasites est ajusté par dilution avec le même milieu froid, à la densité de 2 x 10⁵ sporozoïtes/ml. L'ensemble de la procédure est toujours effectuée dans un maximum de 35 minutes et permet de préserver la viabilité et l'infectivité des sporozoïtes.
Un volume de 0,5 ml de la suspension contenant 10⁵ sporozoïtes est injectée i.v. aux souris Swiss OF1 femelles de 18 à 22 g utilisées pour les tests thérapeutiques.
Des groupes de 20 à 25 souris infectées comme décrit ci-dessus sont traités en une seule injection intraveineuse de primaquine diphosphate (Pq) ou des dérivés monoacyls et aminoacides de la primaquine sous formes dichlorhydrates (X-Pq) trois heures après l'inoculation des sporozoïtes. Le volume injecté est ajusté en fonction du poids de la souris, à raison de 0,5 ml pour un poids de 25 g. Les composés sont dilués dans du tampon phosphate salin (PBS) pH 7.0 et le pH est ajusté à 7.0. Les souris infectées mais non traitées (5 par groupe) reçoivent le tampon seul et servent à contrôler l'infectivité des sporozoïtes.
Les souris expérimentales sont gardées durant une période de 50 jours. Le développement de la parasitémie est suivi en examinant quotidiennement des frottis de sang, colorés 60 min. au Giemsa à 5 % dans du tampon Sörensen à pH 7,2, à partir du 5ème jour et ce jusqu'au 15ème jour. Le nombre d'animaux infectés peut ainsi être déterminé. Ces résultats permettent d'établir la survie à long terme (LTS, le nombre de souris survivantes non parasitées sur le nombre de souris infectées et traitées).
L'activité prophylactique causale (CPD₅₀) est obtenue par l'analyse des logits de la réponse (exprimée en % de LTS) en fonction de la dose (mg Pq/kg).
Les animaux infectés à l'aide de sporozoïtes de P. berghei sont traités trois heures après avec une seule injection des composés par voie intraveineuse. Ce test permet de définir l'activité prophylactique causale des composés ou la dose permettant de guérir 50 % des animaux infectés (CPD₅₀). La dose est toujours exprimée en mg de Pq diphosphate par kg.

[3] = single i.v. injection 3 h after sporozoite inoculation
[4] = Plasmodium berghei, iv, single i.v. injection 3 h after sporozoite inoculation

| Compound | toxicité aiguë compared with Pq [1] | index Pq (CPD₅₀ de la Pq/CPD₅₀ du composé) [2] | CPD₅₀ (dose prophylactique causale guérissant 50 % des animaux infectés) [2, 3] | activité thérapeutique compared with Pq [2] | dose minimale effective [2, 3] | dose totalement curative (100 %) [2, 3] | other results |
| --- | --- | --- | --- | --- | --- | --- | --- |
| COc1cc(NC(C)CCCNC(=O)[C@H](CC(C)C)NC(=O)[C@H](C)N)c2ncccc2c1 (stereo partly drawn) [L-leucyl-L-alanyl-Pq, N-1-L-Alanyl-L-Leucyl, N-4-(Méthoxy-6-quinolinyl-8) pentanediamine-1,4] | meilleure réduction de toxicité |  |  |  |  |  |  |
| COc1cc(NC(C)CCCNC(=O)[C@@H](C)N)c2ncccc2c1 (stereo partly drawn) [D-alanine, N-1-D-alanyl, N-4-(méthoxy-6-quinolinyl-8)pentanediamine-1,4] | très faible toxicité |  |  |  |  |  |  |
| L-glutamine |  | 1,9 | 10 mg Pq/kg |  |  |  |  |
| COc1cc(NC(C)CCCNC(=O)[C@H](C)N)c2ncccc2c1 (stereo partly drawn) [L-alanyl-Pq, N-1-L-alanyl, N-4-(méthoxy-6-quinolinyl-8) pentanediamine-1,4] | meilleure réduction de toxicité; also recorded: moins toxique que la primaquine | 3,0 | 6,3 mg Pq/kg | presque quatre fois supérieure à celle de la primaquine base | 4 mg Pq/kg | 9,9 mg Pq/kg |  |
| COc1cc(NC(C)CCCNC(=O)[C@@H](N)Cc2ccccc2)c2ncccc2c1 (stereo partly drawn) [L-phenylalanyl-Pq, N-1-L-phénylalanyl , N-4(methoxy-6-quinolinyl-8) pentanediamine-1,4] | voisine de celle de la Pq | 3,1 | 6,1 mg Pq/kg |  | 1,8 mg Pq/kg | 21,3 mg Pq/kg |  |
| COc1cc(NC(C)CCCNC(=O)[C@@H](N)CC(C)C)c2ncccc2c1 (stereo partly drawn) [L-leucyl-Pq, N-1-L-leucyl, N-4-(méthoxy-6-quinolinyl-8)pentanediamine-1,4] |  | 1,2 |  |  | 7,6 mg Pq/kg | 30 mg Pq/kg | CPD₅₀ ([2]; single i.v. injection 3 h after sporozoite inoculation, unit printed without mg): 16,2 Pq/kg |
| COc1cc(NC(C)CCCNC(=O)[C@@H](N)CCCCN)c2ncccc2c1 (stereo partly drawn) [L-lysyl-Pq] |  | 4,8 | 3,9 mg Pq/kg |  | 1,7 mg Pq/kg | 8,2 mg Pq/kg | plus toxique que la primaquine ([1]; acute toxicity, fold versus primaquine): 3 x; dose minimale toxique ([1]; single i.v. injection): 8,2 mg Pq/kg |
| COc1cc(NC(C)CCCNC(=O)C(Cc2ccccc2)NC(=O)CCC(=O)O)c2ncccc2c1 [succinyl-L-phenylalanyl-Pq] |  |  |  | nettement moins actifs que la Pq |  |  |  |
| COc1cc(NC(C)CCCN)c2ncccc2c1 (stereo not shown) [Pq, 6-méthoxy-8-(4-amino-1-méthylbutylamino)-quinoléine, reference compound] |  |  |  |  |  |  | ED50 [2, 4]: 18.7 mg/kg; minimal effective dose ([2]; Plasmodium berghei, iv, single i.v. injection 3 h after sporozoite inoculation, read-out: dose minimale effective): 10.4 mg/kg; activité thérapeutique ([2]; at 25 mg/kg i.v.): 75%; index thérapeutique (LD₅₀/CPD₅₀) [2]: 1,7; toxicité dès ([1]; dose from which toxicity is seen, i.v.): ≥ 25 mg/kg; LD50 ([1]; single i.v. injection): 31 mg/kg; MTD ([1]; single i.v. injection): 25.7 mg/kg |
| COc1cc(NC(C)CCCNC(=O)[C@@H](N)CCC(=O)O)c2ncccc2c1 (stereo partly drawn) [L-glutamyl-Pq, N-1-L-glutamyl, N-4-(méthoxy-6-quinolinyl-8) pentadiamine-1,4] | le moins toxique; also recorded: meilleure réduction de toxicité | 2,2 |  |  |  |  | ED50 [2, 4]: 8.5 mg/kg; index thérapeutique (LD₅₀/CPD₅₀) [2]: 16,1; LD₅₀ relative to the LD₅₀ of Pq ([1]; fold higher than Pq): 4 x; MTD relative to the MTD of Pq ([1]; fold higher than Pq): 5 x; LD50 ([1]; single i.v. injection): 136 mg/kg; MTD ([1]; single i.v. injection): 124 mg/kg |
| COc1cc(NC(C)CCCNC(=O)C(C)NC(=O)CCC(=O)O)c2ncccc2c1 [succinyl-L-alanyl-Pq] |  |  |  | nettement moins actifs que la Pq |  |  |  |
| COc1cc(NC(C)CCCNC(=O)CCCC(=O)O)c2ncccc2c1 (stereo not shown) [glutarryl-Pq] |  |  |  | nettement moins actifs que la Pq |  |  |  |
